Where a SMILES comes first, the peptide text is derived from it.

In this assay the target is HLA-A02 (Homo sapiens, UniProt P04439, D140Y/D185E/D98H/E176V/E277Q/G131W/G231S/I119V/I121R/I166T/I218V/L300P/L318F/N151K/N90K/P208A/P217A/Q86G/Q94H/R138H/R169H/T345S). The assay is described as follows: Competition binding assay using soluble HLA class I.
As a reminder, the IC50 is the concentration that inhibits the measured activity by half. The low end stands for greater potency, the high end for weaker potency. What is called Ki is a dissociation constant, usually derived from enzyme kinetics or from competition with a known ligand. `CC(C)C[C@H](NC(=O)[C@H](CS)NC(=O)[C@H](CO)NC(=O)[C@H](CC(C)C)NC(=O)[C@H](CC(C)C)NC(=O)[C@H](C)NC(=O)[C@H](CC(C)C)NC(=O)[C@H](CC(C)C)NC(=O)[C@@H](N)Cc1ccccc1)C(=O)O` had an IC50 of 136 nM and a Ki of 136 nM.
On to `CC(C)C[C@H](NC(=O)[C@H](C)NC(=O)[C@H](CC(C)C)NC(=O)[C@H](CC(C)C)NC(=O)[C@@H](N)Cc1ccccc1)C(=O)N[C@@H](CC(C)C)C(=O)N[C@@H](CO)C(=O)N[C@@H](CS)C(=O)N[C@@H](CC(C)C)C(=O)N[C@H](C(=O)O)[C@@H](C)O`, for which the IC50 was found to be 132 nM and the Ki amounted to 132 nM.
Turning to `CC(C)C[C@H](NC(=O)[C@H](CC(C)C)NC(=O)[C@H](Cc1c[nH]c2ccccc12)NC(=O)CNC(=O)[C@H](C)NC(=O)[C@H](Cc1c[nH]c2ccccc12)NC(=O)CNC(=O)[C@H](CC(C)C)NC(=O)CN)C(=O)O`, the Ki was 27 nM.
For the compound `CC[C@H](C)[C@H](NC(=O)[C@H](CS)NC(=O)CNC(=O)[C@H](CC(C)C)NC(=O)[C@H](CC(C)C)NC(=O)CN)C(=O)N[C@H](C(=O)N[C@H](C(=O)N[C@@H](CO)C(=O)N[C@@H](CC(C)C)C(=O)O)[C@@H](C)O)[C@@H](C)CC`, the IC50 amounted to 26 nM and the affinity corresponds to a Ki of 26 nM.
In the case of `CC[C@H](C)[C@H](N)C(=O)N[C@@H](CCSC)C(=O)N[C@@H](Cc1ccc(O)cc1)C(=O)N[C@@H](C)C(=O)N1CCC[C@H]1C(=O)N[C@H](C(=O)N[C@@H](CC(C)C)C(=O)N[C@@H](Cc1c[nH]c2ccccc12)C(=O)N[C@@H](C)C(=O)O)[C@@H](C)O`, the IC50 is 46 nM and the Ki turned out to be 46 nM.
Take `CC[C@H](C)[C@H](NC(=O)[C@@H](NC(=O)[C@H](CC(C)C)NC(=O)[C@H](CS)NC(=O)[C@H](CO)NC(=O)[C@H](CC(C)C)NC(=O)[C@@H](N)CC(C)C)[C@@H](C)O)C(=O)N1CCC[C@H]1C(=O)N[C@@H](C)C(=O)O`: the IC50 amounted to 12 nM and the Ki amounted to 12 nM.
Compound `CC(C)C[C@H](NC(=O)[C@@H](NC(=O)[C@@H](N)CC(C)C)C(C)C)C(=O)N[C@@H](CC(N)=O)C(=O)N1CCC[C@H]1C(=O)N[C@@H](CO)C(=O)N[C@H](C(=O)N[C@@H](C)C(=O)N[C@@H](C)C(=O)O)C(C)C` gave a Ki of 1680 nM.
As to `CC[C@H](C)[C@H](NC(=O)[C@@H](NC(=O)[C@@H](N)CC(N)=O)[C@@H](C)CC)C(=O)N[C@@H](CCSC)C(=O)N[C@@H](Cc1ccc(O)cc1)C(=O)N[C@@H](C)C(=O)N1CCC[C@H]1C(=O)N[C@H](C(=O)N[C@@H](CC(C)C)C(=O)O)[C@@H](C)O`, the IC50 worked out at 70 nM and the Ki came out at 70 nM.
As to `CC[C@H](C)[C@H](NC(=O)[C@@H](N)CCC(N)=O)C(=O)N[C@H](C(=O)NCC(=O)NCC(=O)N[C@H](C(=O)N[C@@H](Cc1ccc(O)cc1)C(=O)N[C@@H](CC(C)C)C(=O)N[C@@H](CC(C)C)C(=O)O)C(C)C)C(C)C`, the IC50 was found to be 228 nM.
With `CC(C)C[C@H](NC(=O)[C@@H](NC(=O)[C@@H](NC(=O)[C@H](CC(C)C)NC(=O)[C@@H](N)CCCNC(=N)N)C(C)C)C(C)C)C(=O)N[C@@H](C)C(=O)N[C@H](C(=O)N[C@@H](C)C(=O)N[C@H](C(=O)O)[C@@H](C)O)[C@@H](C)O`, the Ki worked out at 16700 nM.
Same read-out and setting: with `CC[C@H](C)[C@H](NC(=O)[C@H](Cc1c[nH]cn1)NC(=O)[C@@H](NC(=O)[C@H](CC(C)C)NC(=O)CNC(=O)[C@@H](NC(=O)[C@H](Cc1ccccc1)NC(=O)[C@@H](NC(=O)[C@@H](N)CO)C(C)C)[C@@H](C)O)[C@@H](C)O)C(=O)O` the figure was 84 nM.
In turn, `CC(C)C[C@H](NC(=O)[C@H](CC(C)C)NC(=O)[C@@H]1CCCN1C(=O)[C@@H](NC(=O)[C@@H]1CCCN1C(=O)CNC(=O)[C@H](Cc1c[nH]cn1)NC(=O)[C@H](CC(C)C)NC(=O)[C@@H](N)[C@@H](C)O)[C@@H](C)O)C(=O)O` came in with an IC50 of 68 nM and a Ki of 68 nM.
Take `CC[C@H](C)[C@H](NC(=O)[C@H](CC(N)=O)NC(=O)CNC(=O)[C@H](CC(C)C)NC(=O)[C@@H](N)Cc1c[nH]c2ccccc12)C(=O)N[C@H](C(=O)N[C@@H](CCSC)C(=O)N[C@@H](Cc1ccc(O)cc1)C(=O)N[C@@H](C)C(=O)O)[C@@H](C)CC`: the Ki was found to be 14.5 nM.
Regarding `CC[C@H](C)[C@H](NC(=O)[C@@H](N)Cc1ccc(O)cc1)C(=O)N1CCC[C@H]1C(=O)N[C@@H](CC(C)C)C(=O)N[C@H](C(=O)NCC(=O)N[C@@H](C)C(=O)N1CCC[C@H]1C(=O)N[C@@H](CC(C)C)C(=O)O)C(C)C`, the concentration for half-maximal inhibition (IC50) was found to be 337 nM and the Ki was determined as 77 nM.
Compound `CC(C)C[C@H](NC(=O)[C@@H]1CCCN1C(=O)[C@H](Cc1c[nH]c2ccccc12)NC(=O)[C@@H]1CCCN1C(=O)[C@H](Cc1ccc(O)cc1)NC(=O)CNC(=O)[C@@H]1CCCN1C(=O)[C@H](CCC(N)=O)NC(=O)[C@H](C)N)C(=O)O` (H-AQPGYPWPL-OH; N-terminus and C-terminus assumed) registered a Ki of 382 nM.
`CC(C)C[C@H](NC(=O)[C@H](CCCNC(=N)N)NC(=O)[C@H](Cc1ccc(O)cc1)NC(=O)[C@@H]1CCCN1C(=O)[C@H](Cc1ccc(O)cc1)NC(=O)[C@H](CC(=O)O)NC(=O)[C@@H](NC(=O)[C@H](CC(C)C)NC(=O)[C@@H](N)CS)C(C)C)C(=O)O` (H-CLVDYPYRL-OH; N-terminus and C-terminus assumed) returned an IC50 of 437 nM and a Ki of 437 nM.
Consider `CC(C)C[C@H](NC(=O)[C@H](Cc1ccccc1)NC(=O)[C@@H](NC(=O)[C@H](CO)NC(=O)CNC(=O)[C@H](CS)NC(=O)[C@H](CC(C)C)NC(=O)[C@@H](N)CC(=O)O)C(C)C)C(=O)N[C@H](C(=O)O)C(C)C` (H-DLCGSVFLV-OH; N-terminus and C-terminus assumed), for which the affinity, expressed as Ki, was 789 nM.
On the same count and under the same terms, with `CC[C@H](C)[C@H](NC(=O)[C@@H](N)Cc1ccccc1)C(=O)N1CCC[C@H]1C(=O)N[C@H](C(=O)N[C@@H](CCC(=O)O)C(=O)N[C@@H](CO)C(=O)N[C@@H](CCSC)C(=O)N[C@@H](CCC(=O)O)C(=O)N[C@H](C(=O)O)[C@@H](C)O)C(C)C` (H-FIPVESMET-OH) the figure was 934 nM.
Turning to `CSCC[C@H](NC(=O)CN)C(=O)N[C@@H](Cc1ccccc1)C(=O)N[C@@H](CC(=O)O)C(=O)N[C@@H](CO)C(=O)N[C@@H](CO)C(=O)N[C@H](C(=O)N[C@@H](CC(C)C)C(=O)N[C@@H](CS)C(=O)O)C(C)C` (H-GMFDSSVLC-OH), the IC50 came out at 114 nM and the Ki was 71 nM.
Compound `CC[C@H](C)[C@H](N)C(=O)N[C@@H](CCSC)C(=O)N[C@@H](C)C(=O)N[C@@H](CS)C(=O)N[C@@H](CCSC)C(=O)N[C@@H](CO)C(=O)N[C@@H](C)C(=O)N[C@@H](CC(=O)O)C(=O)N[C@@H](CC(C)C)C(=O)O` (H-IMACMSADL-OH; N-terminus and C-terminus assumed) came in with an IC50 of 66 nM and a Ki of 66 nM.
`CC[C@H](C)[C@H](N)C(=O)N[C@@H](CCSC)C(=O)N[C@@H](C)C(=O)N[C@@H](CCCCN)C(=O)N[C@@H](CC(N)=O)C(=O)N[C@@H](CCC(=O)O)C(=O)N[C@H](C(=O)N[C@@H](Cc1ccccc1)C(=O)N[C@@H](CS)C(=O)N[C@H](C(=O)O)C(C)C)C(C)C` (H-IMAKNEVFCV-OH; N-terminus and C-terminus assumed) yielded an IC50 of 199 nM and a Ki of 199 nM.
As to `CC(C)C[C@H](NC(=O)[C@@H](NC(=O)[C@H](CC(C)C)NC(=O)[C@@H](NC(=O)[C@@H](N)CCCCN)C(C)C)C(C)C)C(=O)N[C@@H](CC(N)=O)C(=O)N1CCC[C@H]1C(=O)N[C@@H](CO)C(=O)N[C@H](C(=O)O)C(C)C` (H-KVLVLNPSV-OH), the IC50 stood at 50 nM and affinity was put at a Ki of 50 nM.
`CSCC[C@H](N)C(=O)N[C@@H](C)C(=O)N[C@@H](CC(C)C)C(=O)N[C@@H](Cc1ccc(O)cc1)C(=O)N[C@@H](CC(=O)O)C(=O)N[C@H](C(=O)N[C@H](C(=O)N[C@@H](CO)C(=O)N[C@H](C(=O)O)[C@@H](C)O)C(C)C)C(C)C` (H-MALYDVVST-OH; N-terminus and C-terminus assumed): affinity was put at a Ki of 1140 nM.
The compound `CC[C@H](C)[C@H](NC(=O)[C@H](CO)NC(=O)[C@H](Cc1ccccc1)NC(=O)[C@H](CO)NC(=O)[C@H](CS)NC(=O)CNC(=O)[C@@H]1CCCN1C(=O)[C@H](CC(C)C)NC(=O)[C@@H](N)CC(N)=O)C(=O)O` (H-NLPGCSFSI-OH) displayed an IC50 of 83 nM and a Ki of 70 nM.
For the compound `CC[C@H](C)[C@H](NC(=O)[C@H](Cc1ccc(O)cc1)NC(=O)[C@H](CC(C)C)NC(=O)[C@@H](N)CCCNC(=N)N)C(=O)NCC(=O)NCC(=O)N1CCC[C@H]1C(=O)N[C@@H](CC(C)C)C(=O)N[C@H](C(=O)O)[C@@H](C)O` (H-RLYIGGPLT-OH), the Ki stood at 536 nM. This lies in the sub-micromolar range.
The compound `CSCC[C@H](NC(=O)[C@@H](N)CO)C(=O)N[C@H](C(=O)NCC(=O)N[C@@H](CC(N)=O)C(=O)N[C@@H](Cc1c[nH]c2ccccc12)C(=O)N[C@@H](C)C(=O)N[C@@H](CCCCN)C(=O)N[C@H](C(=O)O)C(C)C)C(C)C` (H-SMVGNWAKV-OH; N-terminus and C-terminus assumed) displayed an IC50 of 158 nM and a Ki of 158 nM.
For the compound `CC[C@H](C)[C@H](NC(=O)[C@H](Cc1c[nH]cn1)NC(=O)[C@@H](NC(=O)[C@H](CC(C)C)NC(=O)CNC(=O)[C@@H](NC(=O)[C@H](Cc1ccccc1)NC(=O)[C@@H](NC(=O)[C@@H](N)CO)C(C)C)[C@@H](C)O)[C@@H](C)CC)C(=O)O` (H-SVFTGLIHI-OH), the IC50 worked out at 101 nM. In other words, the sub-micromolar range.
The compound `CC(C)C[C@H](NC(=O)[C@@H](NC(=O)[C@H](CO)NC(=O)[C@@H](NC(=O)[C@@H](N)C(C)C)C(C)C)[C@@H](C)O)C(=O)N1CCC[C@H]1C(=O)N[C@@H](CCC(N)=O)C(=O)N[C@@H](C)C(=O)N[C@H](C(=O)O)C(C)C` (H-VVSTLPQAV-OH; N-terminus and C-terminus assumed) came in with a Ki of 884 nM.
Consider `CC(C)C[C@H](NC(=O)[C@@H](N)Cc1ccc(O)cc1)C(=O)N[C@@H](Cc1ccccc1)C(=O)N[C@@H](CC(N)=O)C(=O)N[C@@H](Cc1c[nH]c2ccccc12)C(=O)N[C@@H](C)C(=O)N[C@H](C(=O)N[C@@H](CCCNC(=N)N)C(=O)N[C@H](C(=O)O)[C@@H](C)O)C(C)C` (H-YLFNWAVRT-OH; N-terminus and C-terminus assumed), for which the IC50 was 29 nM and the Ki stood at 29 nM.

The values above are taken from US20060093617A1, “Peptides for inducing a CTL and/or HTL response to hepatitis C virus” (Innogenetics, N.V., priority 2004, published 2006).
